Laboratory results: patent publication US12655116B2, “Substituted isophthalic acid diamides” (Bayer Aktiengesellschaft, priority 2020, dated 2026)

Assays:
DIGSA [1] = test: Pre-emergence herbicidal action against DIGSA; type: in vivo, Digitaria sanguinalis
How it was run: (§1)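 Seeds sown in sandy loam, soil-covered; compound sprayed on soil surface pre-emergence. Application: WP/EC, 600–800 l/ha, 0.2% wetting agent. Readout: visual % damage at 3 weeks.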

SETVI [2] = test: Pre-emergence herbicidal action against SETVI; type: in vivo, Setaria viridis
How it was run: as §1

VIOTR [3] = test: Pre-emergence herbicidal action against VIOTR; type: in vivo, Viola tricolor
How it was run: as §1

MATIN [4] = test: Pre-emergence herbicidal action against MATIN; type: in vivo, Matricaria inodora
How it was run: as §1

ABUTH [5] = test: Post-emergence herbicidal action against ABUTH; type: in vivo, Abutilon theophrasti; details: visual assessment about 3 weeks after treatment vs untreated controls
How it was run: (§2)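 Sandy loam, greenhouse; treatment 2–3 weeks after sowing, one-leaf stage. Aqueous suspension or emulsion from WP/EC sprayed on foliage (600–800 l/ha, 0.2% wetting agent). Readout: visual % action, ~3 weeks.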

VERPE [6] = test: Post-emergence herbicidal action against VERPE; type: in vivo, Veronica persica; details: 20 g/ha; for pest or weed control at 20 g/ha: Veronica persica, 504 h
How it was run: as §2

SETVI [7] = test: Post-emergence herbicidal action against SETVI; type: in vivo, Setaria viridis
How it was run: as §2

ECHCG [8] = test: Post-emergence herbicidal action against ECHCG; type: in vivo, Echinochloa crus-galli
How it was run: as §2

LOLRI = test: Pre-emergence herbicidal action against LOLRI; type: in vivo, Lolium rigidum; details: 80 g/ha; for pest or weed control at 80 g/ha: Lolium rigidum, 504 h
Description: Seeds of monocotyledonous and dicotyledonous weed plants and crop plants are laid out in sandy loam soil in wood-fiber pots and covered with soil. The compounds of the invention, formulated in the form of wettable powders (WP) or as emulsion concentrates (EC), are then applied to the surface of the covering soil in the form of an aqueous suspension or emulsion at a water application rate equivalent to 600 to 800 l/ha, with addition of 0.2% wetting agent. After the treatment, the pots are placed in a greenhouse and kept under good growth conditions for the trial plants. The damage to the test plants is scored visually after a test period of 3 weeks by comparison with untreated controls (herbicidal activity in percent (%): 100% activity=the plants have died, 0% activity=like control plants). […] The tables below illustrate, in an illustrative manner, the post-emergence herbicidal action of the compounds of the invention, the herbicidal activity being stated in percent.

ALOMY [9] = test: Post-emergence herbicidal action against ALOMY; type: in vivo, Alopecurus myosuroides; details: visual assessment about 3 weeks after treatment vs untreated controls; for pest or weed control at 5 g/ha / pest or weed control at 20 g/ha: Alopecurus myosuroides, 504 h; for pest or weed control at 5 g/ha: dosage 5 g/ha
How it was run: as §2

AMARE [10] = test: Post-emergence herbicidal action against AMARE; type: in vivo, Amaranthus retroflexus; details: 20 g/ha, visual assessment about 3 weeks after treatment, 100% = plants have died, 0% = like control plants; for pest or weed control at 20 g/ha: Amaranthus retroflexus, 504 h
How it was run: as §2

AMARE [11] = test: Pre-emergence herbicidal action against AMARE; type: in vivo, Amaranthus retroflexus; details: for pest or weed control at 20 g/ha / pest or weed control at 80 g/ha: Amaranthus retroflexus, 504 h
How it was run: as §1

DIGSA [12] = test: Post-emergence herbicidal action against DIGSA; type: in vivo, Digitaria sanguinalis
How it was run: as §2

ABUTH [13] = test: Pre-emergence herbicidal action against ABUTH; type: in vivo, Abutilon theophrasti
How it was run: as §1

ALOMY [14] = test: Pre-emergence herbicidal action against ALOMY; type: in vivo, Alopecurus myosuroides
How it was run: as §1

ECHCG [15] = test: Pre-emergence herbicidal action against ECHCG; type: in vivo, Echinochloa crus-galli; details: 80 g/ha; for pest or weed control at 80 g/ha: Echinochloa crus-galli, 504 h
How it was run: as §1

VERPE [16] = test: Pre-emergence herbicidal action against VERPE; type: in vivo, Veronica persica; details: dosage 80 g/ha
How it was run: as §1

PHBPU = test: Post-emergence herbicidal action against PHBPU; type: in vivo, Pharbitis purpurea
How it was run: as §2

MATIN [17] = test: Post-emergence herbicidal action against MATIN; type: in vivo, Matricaria inodora; details: Tripleurospermum inodorum, 504 h, dosage 20 g/ha
How it was run: as §2

AVEFA = test: Pre-emergence herbicidal action against AVEFA; type: in vivo, Avena fatua; details: Avena fatua, 504 h, pre-emergence; for pest or weed control at 20 g/ha: scored visually after 3 weeks, 100% = plants have died, 0% = like control plants
How it was run: as §1

VIOTR [18] = test: Post-emergence herbicidal action against VIOTR; type: in vivo, Viola tricolor; details: Viola tricolor, 504 h
How it was run: as §2

[19] = 20 g/ha, scored visually after 3 weeks vs untreated controls, 100% = plants have died, 0% = like control plants
[20] = 80 g/ha, scored visually after 3 weeks vs untreated controls (100% = plants have died, 0% = like control plants)
[21] = Setaria viridis, 504 h, dosage 20 g/ha
[22] = Setaria viridis, 504 h, dosage 80 g/ha
[23] = Viola tricolor, 504 h, dosage 80 g/ha
[24] = Tripleurospermum inodorum, 504 h, dosage 80 g/ha
[25] = Abutilon theophrasti, 504 h, dosage 20 g/ha
[26] = Echinochloa crus-galli, 504 h, dosage 20 g/ha
[27] = 80 g/ha, scored visually after 3 weeks vs untreated controls, 100% = plants have died, 0% = like control plants
[28] = Abutilon theophrasti, 504 h, 80 g/ha, scored visually after 3 weeks vs untreated controls (100% = plants have died, 0% = like control plants)
[29] = Alopecurus myosuroides, 504 h, 80 g/ha, pre-emergence, scored visually after 3 weeks vs untreated controls (100% = plants have died, 0% = like control plants)
[30] = Ipomoea purpurea, 504 h, dosage 20 g/ha

COCCNC(=O)c1c(C(F)(F)F)ccc(C(=O)Nc2nnnn2C)c1C [Example 1-34]
Pre-emergence action against DIGSA in % (DIGSA [1]; dosage 20 g/ha): 100% | Pre-emergence action against DIGSA in % (DIGSA [1]; dosage 80 g/ha): 100% | Pre-emergence action against SETVI in % (SETVI [2]; dosage 80 g/ha): 100% | Pre-emergence action against VIOTR in % (VIOTR [3]; dosage 20 g/ha): 100% | Pre-emergence action against VIOTR in % (VIOTR [3]; dosage 80 g/ha): 100% | Pre-emergence action against MATIN in % (MATIN [4]; dosage 80 g/ha): 90% | Post-emergence action against ABUTH in % (ABUTH [5]; dosage 5 g/ha): 90% | Post-emergence action against ABUTH in % (ABUTH [5]; dosage 20 g/ha): 100% | Post-emergence action against VERPE in % (VERPE [6]): 90% | Post-emergence action against SETVI in % (SETVI [7]; dosage 5 g/ha): 80% | Post-emergence action against SETVI in % (SETVI [7]; dosage 20 g/ha): 90% | Post-emergence action against ECHCG in % (ECHCG [8]; dosage 5 g/ha): 90% | Post-emergence action against ECHCG in % (ECHCG [8]; dosage 20 g/ha): 90% | Pre-emergence action against LOLRI in % (LOLRI): 80% | Post-emergence action against ALOMY in % (ALOMY [9]; dosage 20 g/ha): 90% | Post-emergence action at 20 g/ha against AMARE in % (AMARE [10]): 100% | Pre-emergence action against AMARE in % (AMARE [11]; [19]): 100% | Pre-emergence action against AMARE in % (AMARE [11]; [20]): 100% | Post-emergence action against DIGSA in % (DIGSA [12]; 5 g/ha): 80% | Post-emergence action against DIGSA (DIGSA [12]; 20 g/ha): 90% | Pre-emergence action against ABUTH (herbicidal activity) (ABUTH [13]; [20]): 100% | Pre-emergence action against ABUTH (herbicidal activity in percent) (ABUTH [13]; dosage 20 g/ha, scored visually after 3 weeks vs untreated controls, 100% = plants have died, 0% = like control plants): 80% | Pre-emergence action against ALOMY (ALOMY [14]; 20 g/ha, scored visually after 3 weeks, 100% = plants have died, 0% = like control plants): 80% | Pre-emergence action against ALOMY (herbicidal activity) (ALOMY [14]; 80 g/ha, pre-emergence, scored visually after 3 weeks vs untreated controls (100% = plants have died, 0% = like control plants)): 100% | Pre-emergence action against ECHCG in % (ECHCG [15]): 90% | Pre-emergence action against VERPE in % (VERPE [16]): 100% | Post-emergence action against PHBPU in % (PHBPU; dosage 5 g/ha): 90% | Post-emergence action against PHBPU in % (PHBPU; dosage 20 g/ha): 90%

CNC(=O)c1c(I)ccc(C(=O)Nc2nnnn2C)c1Cl [Example 1-195]
pest or weed control at 20 g/ha (SETVI [2]; [21]): 90% | pest or weed control at 80 g/ha (SETVI [2]; [22]): 100% | pest or weed control at 20 g/ha (VIOTR [3]; Viola tricolor, 504 h, dosage 20 g/ha): 100% | pest or weed control at 80 g/ha (VIOTR [3]; [23]): 100% | pest or weed control at 20 g/ha (MATIN [4]; Tripleurospermum inodorum, 504 h, dosage 20 g/ha): 90% | pest or weed control at 80 g/ha (MATIN [4]; [24]): 100% | pest or weed control at 20 g/ha (ABUTH [5]; [25]): 80% | pest or weed control at 20 g/ha (MATIN [17]): 80% | pest or weed control at 80 g/ha (AVEFA): 90% | pest or weed control at 20 g/ha (AVEFA): 80% | pest or weed control at 20 g/ha (VERPE [6]): 80% | pest or weed control at 5 g/ha (SETVI [7]; Setaria viridis, 504 h, dosage 5 g/ha): 100% | pest or weed control at 20 g/ha (SETVI [7]; [21]): 100% | pest or weed control at 20 g/ha (ECHCG [8]; [26]): 80% | pest or weed control at 80 g/ha (LOLRI): 80% | pest or weed control at 5 g/ha (ALOMY [9]): 90% | pest or weed control at 20 g/ha (ALOMY [9]; dosage 20 g/ha): 100% | pest or weed control at 20 g/ha (AMARE [10]): 100% | pest or weed control at 20 g/ha (AMARE [11]; [19]): 90% | pest or weed control at 80 g/ha (AMARE [11]; [27]): 100% | pest or weed control at 80 g/ha (ABUTH [13]; [28]): 100% | pest or weed control at 20 g/ha (ABUTH [13]; Abutilon theophrasti, 504 h, dosage 20 g/ha, scored visually after 3 weeks vs untreated controls, 100% = plants have died, 0% = like control plants, read-out: Pre-emergence action against ABUTH (herbicidal activity in percent)): 90% | pest or weed control at 80 g/ha (ALOMY [14]; [29]): 90% | pest or weed control at 20 g/ha (ALOMY [14]; Alopecurus myosuroides, pre-emergence, 504 h, 20 g/ha, scored visually after 3 weeks, 100% = plants have died, 0% = like control plants): 90% | pest or weed control at 80 g/ha (ECHCG [15]): 100% | pest or weed control at 5 g/ha (PHBPU; Ipomoea purpurea, 504 h, dosage 5 g/ha): 80% | pest or weed control at 20 g/ha (PHBPU; [30]): 80% | pest or weed control at 5 g/ha (VIOTR [18]; 5 g/ha): 90% | pest or weed control at 20 g/ha (VIOTR [18]): 100%

CCNC(=O)c1c(Br)ccc(C(=O)Nc2nnnn2C)c1Br [Example 1-343]
pest or weed control at 80 g/ha (SETVI [2]; [22]): 100% | pest or weed control at 80 g/ha (VIOTR [3]; [23]): 100% | pest or weed control at 80 g/ha (MATIN [4]; [24]): 100% | pest or weed control at 5 g/ha (ABUTH [5]; Abutilon theophrasti, 504 h, dosage 5 g/ha): 90% | pest or weed control at 20 g/ha (ABUTH [5]; [25]): 90% | pest or weed control at 80 g/ha (AVEFA): 80% | pest or weed control at 20 g/ha (AVEFA): 80% | pest or weed control at 20 g/ha (VERPE [6]): 80% | pest or weed control at 20 g/ha (SETVI [7]; [21]): 100% | pest or weed control at 5 g/ha (ECHCG [8]; Echinochloa crus-galli, 504 h, dosage 5 g/ha): 80% | pest or weed control at 20 g/ha (ECHCG [8]; [26]): 90% | pest or weed control at 80 g/ha (LOLRI): 80% | pest or weed control at 5 g/ha (ALOMY [9]): 90% | pest or weed control at 20 g/ha (ALOMY [9]; dosage 20 g/ha): 100% | pest or weed control at 20 g/ha (AMARE [10]): 100% | pest or weed control at 20 g/ha (AMARE [11]; [19]): 100% | pest or weed control at 80 g/ha (AMARE [11]; [27]): 100% | pest or weed control at 80 g/ha (ABUTH [13]; [28]): 100% | pest or weed control at 80 g/ha (ALOMY [14]; [29]): 100% | pest or weed control at 80 g/ha (ECHCG [15]): 90% | pest or weed control at 80 g/ha (VERPE [16]; Veronica persica, 504 h): 80% | pest or weed control at 20 g/ha (PHBPU; [30]): 80% | pest or weed control at 20 g/ha (VIOTR [18]): 80%
